According to US20170368082A1, “FORMULATIONS OF BRINCIDOFOVIR” (priority 2016, published 2017):

Test: Preclinical infusion system assembly (rats) compatibility
Assay type: physicochemical
Conditions: 0.2 mg/mL (Test #1)
Method: The compatibility of the following brincidofovir formulations with an infusion system assembly for dosing of rats (consisting of a syringe, tether, catheter and syringe pump) was tested
a.) 0.2 mg/mL brincidofovir, 4 mM sodium phosphate, pH˜8.0, approx. 4.90% dextrose; b.) 1.5 mg/mL brincidofovir, 30 mM sodium phosphate, pH-8.0, approx. 4.25% dextrose.
Both solutions were prepared via dilution of the developed brincidofovir formulation (10 mg/mL brincidofovir, 200 mM sodium phosphate, pH=8.0) with a 5% dextrose solution. The testing procedure can be summarized as follows: • 1. The appearance, pH, and c(BCV) of the bulk testing solutions (0.2 mg/mL BCV, 4 mM sodium phosphate, pH-8.0, approx. 4.90% dextrose, and 1.5 mg/mL BCV, 30 mM sodium phosphate, pH˜8.0, approx. 4.25% dextrose were assessed pre-contact. • 2. Approximately 5 mL of the testing solution was drawn into a syringe which was then connected to the assembled infusion system (Vascular Access Harness (VAH) tether kit, the VAH port for rat jacket, and catheter). • 3. The infusion system was manually filled with the testing solution. Approximately 200 μL of the testing solution were pushed out of the infusion system and collected as an end-of-line sample (to) for the assessments of appearance and c(BCV). • 4. The syringe of the testing infusion system was mounted onto the syringe pump, and a flow rate was set to a flow of 1.2 mL/h ([…]) for a total dispensing volume of 2.4 mL (120 min). • 5. The entire flow-through was collected over the course of the experiment. At the respective time points (t10min, t105 min), end-of-line samples (approx. 200 μL) were collected for analysis. • 6. The pH of the bulk flow-through was measured at the end of the experiment (t120 min), since the volume of samples acquired from previous time points (200 μL) was too small for a standard pH measurement.

Compound: CCCCCCCCCCCCCCCCOCCCOP(=O)(O)CO[C@H](CO)Cn1ccc(N)nc1=O [Brincidofovir]
- Appearance (pre contact (bulk solution)): Clear, colorless
- Measured pH (pre contact (bulk solution)): 8.0
- Observed c(BCV) (pre contact (bulk solution)): 0.21 mg/mL
- Appearance (t0): Clear, colorless
- Observed c(BCV) (t0): 0.19 mg/mL
- Appearance (t10 min): Clear, colorless
- Observed c(BCV) (t10 min): 0.16 mg/mL
- Appearance (t105 min): Clear, colorless
- Observed c(BCV) (t105 min): 0.20 mg/mL
- Appearance (t120 min (bulk solution)): Clear, colorless
- Measured pH (t120 min (bulk solution)): 8.0
